Entries after “also recorded” stand apart in the source; their conditions may differ. Read-outs that look alike come from different tables or passages of the source.
Key:
[1] = tested on: human sebocytes; assay: in vitro sebum suppression: 14C-acetate label remaining in sebocytes; assay type: cell-based; settings: for activity at 1 µM / activity at 10 µM: Homo sapiens, read-out: % of Control
Description: Secondary cultures of human sebocytes obtained from an adult […] were grown in 48-well tissue culture plates (Costar Corp.; Cambridge, Mass.) until two days post-confluence. Sebocyte growth medium consisted of Clonetics Keratinocyte Basal Medium (KBM) supplemented with 14 μg/ml bovine pituitary extract, 0.4 μg/ml hydrocortisone, 5 μg/ml insulin, […], 1.2×10^-10 M cholera toxin, 100 units/ml penicillin, and 100 μg/ml streptomycin. All cultures were incubated at 37° C. in the presence of 7.5% CO2. Medium was changed three times per week.
On the day of experimentation, the growth medium was removed and the sebocytes washed three times with sterile Dulbecco's Modified Eagle Medium (DMEM; phenol red free). Fresh DMEM was added to each sample (triplicates) with 1-5 microliter of test agent solubilized in ethanol. Controls consisted of addition of ethanol alone. Each plate was returned to the incubator for 20 hours.
This was followed by the addition of 14C-acetate buffer (5 mM final concentration, 56 mCi/mmol specific activity). Sebocytes were returned to the incubator for four hours afterwhich each culture was rinsed three times with phosphate buffered saline to remove unbound label. Radioactive label remaining in the sebocytes was harvested and counted using a Beckman scintillation counter.

[2] = tested on: human sebocytes; assay: lactate dehydrogenase activity in sebocyte culture supernatant; assay type: cell-based; set-up: key: A340 at 5 min minus initial reading; higher = more LDH; settings: after 20 hours
Description: For the experiments summarized in Tables 1 and 2, lactate dehydrogenase amount was also measured. After 20 hours, 25 μl of supernatant was removed from each well and transferred to a 96-well plate. A vial of lactate dehydrogenase reagent (LD-L-20; Sigma Diagnostics; Cat 228-20) was reconstituted with 20 ml of distilled water. 200 μl of this reconstituted reagent was added to each well and the plate immediately analyzed at 340 nm. After exactly five minutes at room temperature, the plate was re-analyzed at 340 nm. The amount of lactate dehydrogenase activity was calculated by subtracting the initial reading from the five minute reading (this value indicated below in column headed “LDH”). The higher the number, the more lactate dehydrogenase is present. Increased lactate dehydrogenase numbers are associated with cellular crisis. Experimental samples were compared to the value obtained with the ethanol treated control.

With `O=S1(=O)OC(c2ccc(O)cc2)(c2ccc(O)cc2)c2ccccc21` [Phenol Red] the activity at 1 µM ([1]; Table 2, 1 μM) was 91.4%, the activity at 10 µM ([1]; Table 2, 10 μM) was 70.9% and the LDH ([2]; Table 2, 1 μM, control 0.154) was 0.169. For the same compound, the LDH ([2]; Table 2, 10 μM, control 0.154) was 0.237.
In the case of `O=C(Nc1ccc(Cl)cc1)Nc1ccc(Cl)c(Cl)c1` [TCC, 3,4,4-trichlorocarbanilide], the “% of Control” value ([1]; Table 1, 1 μM, 20 hours then 4 hours 14C-acetate) is reported as 70.4%, the “% of Control” value ([1]; Table 1, 10 μM, 20 hours then 4 hours 14C-acetate) is reported as 1.0% and the “% of Control” value ([1]; Table 1, 100 μM, 20 hours then 4 hours 14C-acetate) is reported as 0.8%. The “% of Control” value ([1]; Table 1, 1 mM, 20 hours then 4 hours 14C-acetate) was 0.8%, the “sebum suppressive effectiveness compared with Phenol Red” value ([1]; Table 2) was “more effective than Phenol Red” and the “% of Control” value ([1]; Table 2, 100 nM) was 80.4%. The “% of Control” value ([1]; Table 2, 500 nM) was 54.6%, the “% of Control” value ([1]; Table 2, 1 μM) was 20.9% and the “sebum suppressive activity in the presence of retinol (retinoid)” value ([1]; Table 3) was “improved sebum suppressive activity; also recorded: significantly enhanced”. The “% of Control” value ([1]; Table 3, 250 nM) was 97.6%, the “% of Control” value ([1]; Table 3, 500 nM) was 75.6% and the “% of Control” value ([1]; Table 3, 1 μM) was 81.4%. The “% of Control” value ([1]; Table 3, 2.5 μM) was 4.3%, the sebum suppressive activity ([1]; summary of Tables 1-3) was “had sebum suppressive activity” and the LDH ([2]; Table 1, 1 μM, 340 nm five minute minus initial reading, control 0.094) was 0.039. For the same compound, the LDH ([2]; Table 1, 10 μM, 340 nm five minute minus initial reading, control 0.094) was 0.059, the LDH ([2]; Table 1, 100 μM, 340 nm five minute minus initial reading, control 0.094) was 0.114 and the LDH ([2]; Table 1, 1 mM, 340 nm five minute minus initial reading, control 0.094) was 0.190. It also gave an LDH ([2]; Table 2, 100 nM, control 0.154) of 0.137, an LDH ([2]; Table 2, 500 nM, control 0.154) of 0.136 and an LDH ([2]; Table 2, 1 μM, control 0.154) of 0.183.
With `CC1=C(/C=C/C(C)=C/C=C/C(C)=C/CO)C(C)(C)CCC1` [Retinol] the activity at 1 µM ([1]; Table 3, 1 μM) was 104% and the activity at 10 µM ([1]; Table 3, 10 μM) was 102%.

From patent US20020018792A1, “Skin care anti-sebum compositions containing 3,4,4-trichlorocarbanilide” (Unilever Home & Personal Care USA, Division of Conopco, Inc., priority 2000, published 2002)
